US8822754B2, “Ecdysone receptor-based inducible gene expression system” (Intrexon Corporation, priority 2000, dated 2014)

How the values were obtained:
GAL4EcR + VP16USP = assay: Transactivation of reporter genes through switch 1.2 in CHO cells; format: cell-based, Choristoneura fumiferana; conditions: switch 1.2 GAL4EcR + VP16USP, pGAL4RELuc
Experimental: This construct was prepared in the same way as in switch 1.1 above except MmRXRDEF was replaced with the D, E and F domains from spruce budworm USP (“CfUSPDEF”; SEQ ID NO: 58). The constructs used in this example are similar to those disclosed in U.S. Pat. No. 5,880,333 except that Choristoneura fumiferana USP rather than Drosophila melanogaster USP was utilized.
(§1) The cells were harvested and reporter activity was assayed.
(§2) Cells were harvested 24-48 hr after adding ligands. […] Twenty μl of lysate was assayed.

GAL4CfEcRVP16 = assay: Transactivation of reporter genes through switch 1.6 in 293 cells; format: cell-based, Choristoneura fumiferana; conditions: switch 1.6 GAL4CfEcRVP16, pGAL4RELuc
Experimental: This construct was prepared so that both the GAL4 DNABD and the VP16AD were placed on the same molecule. GAL4DNABD (SEQ ID NO: 41) and VP16AD (SEQ ID NO: 45) were fused to CfEcRDEF (SEQ ID NO: 3) at N- and C-termini respectively.
(§3) The same procedures described for CHO were followed for 293 cells except that the cells were plated in biocoated plates to avoid clumping.
as §2

DmVgRXR + MmRXR = target: T1, DmVgRXR + MmRXR (Drosophila melanogaster, UniProt P34021, E282G/G283S/G286V); assay: Transactivation of reporter genes through switch 1.8 in 293 cells; format: cell-based; conditions: switch 1.8 DmVgRXR + MmRXR, pIND(SP1)LacZ
T1 construct: host or cells: CHO, NIH3T3, 293 or CV1 cells (one cell line per assay)
T1 sequence (P34021 whole entry E282G/G283S/G286V): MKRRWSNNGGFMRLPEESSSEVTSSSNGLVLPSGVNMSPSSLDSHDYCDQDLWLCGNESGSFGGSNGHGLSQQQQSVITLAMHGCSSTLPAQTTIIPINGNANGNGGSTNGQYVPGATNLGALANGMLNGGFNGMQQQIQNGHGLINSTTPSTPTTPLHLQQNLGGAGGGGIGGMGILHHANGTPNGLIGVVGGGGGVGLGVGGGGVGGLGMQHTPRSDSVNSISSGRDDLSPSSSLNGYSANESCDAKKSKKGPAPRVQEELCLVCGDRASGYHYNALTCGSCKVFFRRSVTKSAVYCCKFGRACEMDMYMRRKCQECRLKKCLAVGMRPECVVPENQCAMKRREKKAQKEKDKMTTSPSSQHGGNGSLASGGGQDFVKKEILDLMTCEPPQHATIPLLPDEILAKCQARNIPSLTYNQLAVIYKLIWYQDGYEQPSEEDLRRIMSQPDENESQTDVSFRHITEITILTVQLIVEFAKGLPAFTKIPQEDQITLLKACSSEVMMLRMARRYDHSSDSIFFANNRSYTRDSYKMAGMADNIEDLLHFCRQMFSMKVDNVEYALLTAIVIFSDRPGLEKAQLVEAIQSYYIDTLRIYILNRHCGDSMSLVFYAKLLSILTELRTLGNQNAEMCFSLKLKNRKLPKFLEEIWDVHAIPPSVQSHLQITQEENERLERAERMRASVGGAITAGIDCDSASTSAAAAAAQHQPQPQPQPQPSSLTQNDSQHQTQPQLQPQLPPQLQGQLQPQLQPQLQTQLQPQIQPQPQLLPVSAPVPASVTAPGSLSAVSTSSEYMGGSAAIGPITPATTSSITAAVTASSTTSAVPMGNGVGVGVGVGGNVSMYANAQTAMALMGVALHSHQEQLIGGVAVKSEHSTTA
T1 sequence (P28700 whole entry, further chain): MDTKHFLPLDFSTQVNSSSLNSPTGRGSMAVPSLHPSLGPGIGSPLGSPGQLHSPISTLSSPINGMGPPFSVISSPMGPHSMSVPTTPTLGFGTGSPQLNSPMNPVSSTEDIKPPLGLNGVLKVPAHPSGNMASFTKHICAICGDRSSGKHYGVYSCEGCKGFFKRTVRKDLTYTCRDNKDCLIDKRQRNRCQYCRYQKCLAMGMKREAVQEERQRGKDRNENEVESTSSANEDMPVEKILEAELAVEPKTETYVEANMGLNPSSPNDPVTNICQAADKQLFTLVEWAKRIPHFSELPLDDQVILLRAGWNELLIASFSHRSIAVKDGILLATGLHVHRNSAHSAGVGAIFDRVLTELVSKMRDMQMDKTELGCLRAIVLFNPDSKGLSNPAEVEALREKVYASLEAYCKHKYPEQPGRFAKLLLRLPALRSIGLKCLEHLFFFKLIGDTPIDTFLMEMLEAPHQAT
Text: This system was purchased from Invitrogen Corp., Carlsbad, Calif. It comprises a Drosophila melanogaster EcR (“DmEcR”) with a modified DNABD fused to VP16AD and placed under the control of a CMV promoter (SEQ ID NO: 60). Full length MmRXR (SEQ ID NO: 53) was placed under the control of the RSV promoter (SEQ ID NO: 61). The reporter, pIND(SP1)LacZ, contains five copies of a modified ecdysone response element (“EcRE”, E/GRE), three copies of an SP1 enhancer, and a minimal heat shock promoter, all of which were placed upstream to the LacZ reporter gene.
as §3, §2

GAL4RXR + VP16DmEcR = target: T2, GAL4RXR + VP16DmEcR (Drosophila melanogaster, UniProt P34021); assay: Transactivation of reporter genes through switch 1.4 in CHO cells; format: cell-based; set-up: expressed in transfected cells; host or cells: CHO cells (transient co-transfection); conditions: switch 1.4 GAL4RXR + VP16DmEcR, pGAL4RELuc
T2 sequence (P34021 254-878): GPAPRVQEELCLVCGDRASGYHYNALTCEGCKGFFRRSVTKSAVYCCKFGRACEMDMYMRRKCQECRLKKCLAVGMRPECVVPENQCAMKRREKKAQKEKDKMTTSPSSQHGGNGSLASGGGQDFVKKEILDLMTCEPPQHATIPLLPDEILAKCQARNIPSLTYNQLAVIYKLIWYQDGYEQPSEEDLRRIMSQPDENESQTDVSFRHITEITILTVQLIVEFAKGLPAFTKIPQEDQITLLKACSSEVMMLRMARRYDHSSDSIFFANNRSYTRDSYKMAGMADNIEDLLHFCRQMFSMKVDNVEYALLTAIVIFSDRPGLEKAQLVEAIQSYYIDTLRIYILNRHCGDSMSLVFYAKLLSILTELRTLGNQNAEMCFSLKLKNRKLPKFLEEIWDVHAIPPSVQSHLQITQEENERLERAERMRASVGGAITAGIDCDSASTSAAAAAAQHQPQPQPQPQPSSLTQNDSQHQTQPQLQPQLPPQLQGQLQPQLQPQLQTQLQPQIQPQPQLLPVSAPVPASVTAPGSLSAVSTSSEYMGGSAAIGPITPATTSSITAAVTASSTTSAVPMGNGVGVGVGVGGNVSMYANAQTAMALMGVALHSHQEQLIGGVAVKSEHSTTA
T2 sequence (P28700 206-467 partner limits assumed): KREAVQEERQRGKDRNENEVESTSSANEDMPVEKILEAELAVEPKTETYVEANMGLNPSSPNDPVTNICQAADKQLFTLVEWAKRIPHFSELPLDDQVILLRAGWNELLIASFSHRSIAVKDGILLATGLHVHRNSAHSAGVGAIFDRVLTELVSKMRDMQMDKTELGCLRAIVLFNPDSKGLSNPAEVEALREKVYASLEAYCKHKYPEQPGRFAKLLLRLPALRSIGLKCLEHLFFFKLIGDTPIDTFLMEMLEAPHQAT
Experimental: This construct was prepared in the same way as switch 1.3 except CfEcRCDEF was replaced with DmEcRCDEF (SEQ ID NO: 6).
as §1, §2

CCc1c(OC)cccc1C(=O)NN(C(=O)c1cc(C)cc(C)c1)C(C)(C)C [N-(2-ethyl-3-methoxybenzoyl)-N′-(3,5-dimethylbenzoyl)-N′-tert-butylhydrazine]
Mean Fold Activation with 50 μM N-(2-ethyl-3-methoxybenzoyl)-N′-(3,5-dimethylbenzoyl)-N′-t-butylhydrazine (GAL4EcR + VP16USP): 2 fold
Mean Fold Activation Through N-(2-ethyl-3-methoxybenzoyl)-N′-(3,5-dimethylbenzoyl)-N′-t-butylhydrazine (GAL4CfEcRVP16): 3 fold
Mean Fold Activation Through N-(2-ethyl-3-methoxybenzoyl)-N′-(3,5-dimethylbenzoyl)-N′-t-butylhydrazine (DmVgRXR + MmRXR): 21 fold
Mean Fold Activation with 50 μM N-(2-ethyl-3-methoxybenzoyl)-N′-(3,5-dimethylbenzoyl)-N′-t-butylhydrazine (GAL4RXR + VP16DmEcR): 312 fold
